Reference: PMC6201879, “N-substituted phenylbenzamides of the niclosamide chemotype attenuate obesity related changes in high fat diet fed mice” (PLoS ONE, 2018)
pIC50: −log10 of the molar value. Read-outs that look alike come from different tables or passages of the source.

Tests used:
[1] = test system: Salmonella typhimurium TA1537
[2] = test system: Escherichia coli WP2 uvrA (pKM101)
[3] = test system: Salmonella typhimurium TA1535
[4] = test system: C57-diet induced obesity (DIO) mouse; assay: Glucose tolerance test in DIO mice; format: in vivo; conditions: 5mg/kg for 7 days
Procedure: Animals were then treated with 5mg/kg niclosamide or vehicle for 7 days and GTT was performed again.
Glucose tolerance test in DIO mice. 2g/kg of glucose was injected IP and at 15, 30 and 60 min, blood glucose levels were measured.

[5] = test system: Escherichia coli WP2 uvrA (pKM101); assay: Ames assay, strain WP2 uvrA (pKM101); conditions: for Mean Revertant Colony Counts WP2 uvrA (pKM101) SP9+: with S9; for Mean Revertant Colony Counts WP2 uvrA (pKM101) S9-: without S9
p-AMPK Thr-172 = assay: Western blot of p-AMPK Thr-172 in liver of HFD-fed mice
[6] = test system: Salmonella typhimurium TA100; conditions: for Mean Revertant Colony Counts TA-100 SP9+: with S9
[7] = test system: Salmonella typhimurium TA98; assay: Ames assay, strain TA98; conditions: for Mean Revertant Colony Counts TA98 SP9+: with S9
[8] = test system: carbonic anhydrase-III (CAIII); conditions: HFD fed-DIO mice; cited from earlier work
[9] = cited from earlier work
[10] = test system: fatty acid synthase (FAS); assay: Western blot of fatty acid synthase in liver of HFD-fed mice
[11] = test system: Salmonella typhimurium (TA98, TA100, TA1535 and TA1537) and Escherichia coli (WP2 uvrA (pKM101)); assay: Ames assay, overall outcome and cytotoxicity across strains
PH5CH8 liver cells = assay: High-throughput hepatic de novo lipogenesis (DNL) assay, high content imaging of steatotic phenotype; format: cell-based, human; conditions: for IC50: PH5CH8 liver cells, 10-point dose response between 1μM and 1.9nM, read-out: IC50 (uM), inhibition of steatotic phenotype in DNL assay
[12] = test system: HEK293 cells stably transduced with the human OCT3 transporter; assay: Cellular oxygen consumption rate (OCR), MitoXpress Xtra; format: cell-based; conditions: HEK293 cells expressing human OCT3; for change in respiration / oxygen consumption rate (OCR): compared to DMSO control, 2 hours; for concentration dependence of OCR change: four concentrations
Procedure: Oxygen consumption rate experiments were performed by ZenBio, Inc (RTP, NC). HEK293 cells stably transduced with the human OCT3 transporter were plated in black-walled microclear plates (Greiner-BioOne) at 60,000 cells per well in growth medium. Cells were incubated overnight to allow attachment before growth medium was removed and replaced with 150μL of assay medium containing compound dilutions. Four concentrations of each compound were prepared and transferred to the empty wells. Control wells contained assay medium only or assay medium containing […] (FCCP) at 1μM. Ten μL of MitoXpress Xtra reagent was added to each test well and 100μL of pre-warmed mineral oil was overlaid in each well to create a seal. The plates were immediately read on a FLUOstar Omega (BMG) using dual read Time Resolved Fluorescence (TR-F) for 2 hours, with measurements taken every 2 minutes using 340nm and 650nm as excitation and emission wavelengths respectively. For lifetime analysis, two measurements per well were taken: 1) delay of 30μs, with a window of 30μs; and 2) delay of 70μs with a window of 30μs. Background TRF values were subtracted from all readings. A ratiometric analysis was performed to determine changes in the Lifetime fluorescence signal: Lifetime (μs)[T] = (D2-D1)/ln(W1/W2), where D is delay; W is fluorescence window value at each time point. Lifetime slopes were calculated using each Lifetime measurement over time. Data are presented as mean ± standard error (SE). The differences between the control (DMSO) and compound treated wells were analyzed using the Student’s t-test. A value of p≤0.05 was considered statistically significant. […]

[13] = set-up: method as in PMID 26245118; conditions: cited from earlier work
[14] = test system: phospho-S6 ribosomal protein; assay: Western blot of phospho-S6 ribosomal protein in HEK293T cells; format: cell-based, human
[15] = Body weight changes in HFD-fed mice; format: in vivo, mouse
Procedure: We next measured body weight changes in HFD-fed animals prior to treatment with niclosamide or phenylbenzamide derivatives and after 12 days, prior to sacrifice. During this time, all animals (including sham) lost some weight.
20-week old animals were treated IP with 500199 at 10 or 25mg/kg by IP over a time-course of 9 days. At day 0, 3, 6 and 9 animals were weighed and tissue samples were collected for standard histological scoring of hepatic steatosis and automated quantitative histomorphometric scoring.

[16] = test system: phospho-AMPK Thr-172 (p-AMPK); assay: Western blot of phospho-AMPK Thr-172 in HEK293T cells; format: cell-based, human
Procedure: AMPK is a metabolic sensor that maintains cellular energy supply. As validation of these changes in lipid metabolism and cellular respiration we evaluated phospho-AMPK Thr-172 (p-AMPK) levels by Western blot in HEK293 cells treated with the phenylbenzamide derivatives. Compounds were screened at 1 and 10μM using the known uncouplers niclosamide and FCCP as positive controls (Fig 4A). […] We concluded that compounds that had little effect on oxygen consumption rates also had little effect on phosphorylation of AMPK.

[17] = test system: carbonic anhydrase-III (CAIII); assay: Western blot of carbonic anhydrase III in liver of HFD-fed mice; conditions: HFD fed-DIO mice; 10mg/kg for 12 days; vs sham
[18] = any concentration tested, vs negative control
[19] = HFD fed-DIO mice, 10mg/kg for 12 days, vs sham

## Nc1ccc2cc3ccccc3cc2c1 [Compound 2-AA, 2-Aminoanthracene, reference compound]
[1]; Salmonella typhimurium
  Mean Revertant Colony Counts TA-1537 SP9+: 11.0
[2]
  Mean Revertant Colony Counts WP2 uvrA (pKM101) SP9+: 345.3
[3]; Salmonella typhimurium
  Mean Revertant Colony Counts TA-1535 SP9+: 24.0

## O=C(Nc1ccc([N+](=O)[O-])cc1Cl)c1cc(Cl)ccc1O [Niclosamide]
[4]; 2g/kg glucose IP
  blood glucose levels at 60 minutes, glucose tolerance test: 250 mg/dL
[4]; pre-treatment approximately 400mg/dL
  plasma glucose levels after the 7-day treatment period: ~275 mg/dL
[1]; 1.5 ug/Well, with S9
  Mean Revertant Colony Counts TA-1537 SP9+: 1.7
[1]; 4 ug/Well, with S9
  Mean Revertant Colony Counts TA-1537 SP9+: 2.0
[1]; 10 ug/Well, with S9
  Mean Revertant Colony Counts TA-1537 SP9+: 0.7
[1]; [18]
  fold increase in the mean number of revertant colonies, TA1537: < 3 fold
[5]; 1.5 ug/Well
  Mean Revertant Colony Counts WP2 uvrA (pKM101) SP9+: 36.7
  Mean Revertant Colony Counts WP2 uvrA (pKM101) S9-: 17.3
[5]; 4 ug/Well
  Mean Revertant Colony Counts WP2 uvrA (pKM101) SP9+: 44.0
  Mean Revertant Colony Counts WP2 uvrA (pKM101) S9-: 20.7
[5]; 10 ug/Well
  Mean Revertant Colony Counts WP2 uvrA (pKM101) SP9+: 34.0
  Mean Revertant Colony Counts WP2 uvrA (pKM101) S9-: 19.3
[5]; 25 ug/Well
  Mean Revertant Colony Counts WP2 uvrA (pKM101) SP9+: 31.7
  Mean Revertant Colony Counts WP2 uvrA (pKM101) S9-: 14.7
[5]; 64 ug/Well
  Mean Revertant Colony Counts WP2 uvrA (pKM101) SP9+: 27.0
  Mean Revertant Colony Counts WP2 uvrA (pKM101) S9-: 22.7
[5]; 160 ug/Well
  Mean Revertant Colony Counts WP2 uvrA (pKM101) SP9+: 24.7
  Mean Revertant Colony Counts WP2 uvrA (pKM101) S9-: 17.7
[5]; 400 ug/Well
  Mean Revertant Colony Counts WP2 uvrA (pKM101) SP9+: 14.7
  Mean Revertant Colony Counts WP2 uvrA (pKM101) S9-: 17.7
[5]; 1000 ug/Well
  Mean Revertant Colony Counts WP2 uvrA (pKM101) SP9+: 14.7
  Mean Revertant Colony Counts WP2 uvrA (pKM101) S9-: 14.0
[5]; [18]
  fold increase in the mean number of revertant colonies, WP2 uvrA (pKM101): < 2 fold
[5]; both in the presence and absence of S9 mix
  concentration with significant cytotoxicity, WP2 uvrA (pKM101): ≥ 400 μg /well
p-AMPK Thr-172; HFD-fed mice, 5 or 25mg/kg IP daily for 12 days
  p-AMPK Thr-172 in liver: significantly upregulated
[6]; 1.5 ug/Well
  Mean Revertant Colony Counts TA-100 SP9+: 19.3
[6]; 1.5 ug/Well, without S9
  Mean Revertant Colony Counts TA-100 S9-: 9.3
[6]; 4 ug/Well
  Mean Revertant Colony Counts TA-100 SP9+: 36.7
[6]; 10 ug/Well
  Mean Revertant Colony Counts TA-100 SP9+: 23.3
[6]; 25 ug/Well
  Mean Revertant Colony Counts TA-100 SP9+: 2.3
[6]; [18]
  fold increase in the mean number of revertant colonies, TA100: < 2 fold
[7]; 1.5 ug/Well
  Mean Revertant Colony Counts TA98 SP9+: 52.0
[7]; 1.5 ug/Well, without S9
  Mean Revertant Colony Counts TA98 S9-: 1.5
[7]; 4 ug/Well
  Mean Revertant Colony Counts TA98 SP9+: 108.3
[7]; 10 ug/Well
  Mean Revertant Colony Counts TA98 SP9+: 194.7
[7]; 1.5, 4 and 10 μg/well in the presence of S9 mix
  fold increase in the mean number of revertant colonies, TA98: ≥ 2 fold
[8]
  carbonic anhydrase-III (CAIII) hepatic protein: down regulated
[9]; 5mg/kg oral dose in rats
  peak plasma concentration (Cmax): 354 ng/mL
[9]; rat, in vivo, po, 5 mg/kg
  half-life: 6.7 h
[3]; 1.5 ug/Well, with S9
  Mean Revertant Colony Counts TA-1535 SP9+: 3.3
[3]; 4 ug/Well, with S9
  Mean Revertant Colony Counts TA-1535 SP9+: 3.7
[3]; [18]
  fold increase in the mean number of revertant colonies, TA1535: < 3 fold
[10]; HFD-fed mice, highest concentration (25mg/kg) IP daily for 12 days
  expression of fatty acid synthase (FAS) in liver: significant reduction
[11]
  Ames assay outcome (mutagenicity): positive
[11]; in the absence of the S9 mix
  concentration with significant cytotoxicity, strains TA98, TA100, TA1535 and TA1537: ≥ 1.5 μg /well
[11]; in the presence of S9 mix
  concentration with significant cytotoxicity, strains TA98, TA100, TA1535 and TA1537: ≥ 10 μg /well
PH5CH8 liver cells; Homo sapiens
  IC50: 0.02 µM
PH5CH8 liver cells; PH5CH8, assay validation
  reduced steatosis (steatotic phenotype in DNL assay): 77 ±12%
[12]
  change in respiration / oxygen consumption rate (OCR): increased OCR
  concentration dependence of OCR change: dose dependent increase in OCR
[13]
  half-life: 6.7 h

## COC(=O)c1ccc(NC(=O)c2cc(C(C)(C)C)ccc2O)c(Cl)c1 [Compound 500199, Methyl 4-[(5-tert-butyl-2-hydroxybenzene)amido]-3-chlorobenzoate]
[14]
  phospho-S6 ribosomal protein: inversely regulated
p-AMPK Thr-172; [19]
  phosphorylation of AMPK at Thr-172 in liver: stimulated phosphorylation of AMPK at Thr-172
[15]; 10mg/kg I.P daily for 12 days
  body weight change vs sham: lost significantly more weight
[15]; 10 or 25mg/kg IP over 9 days
  body weight vs sham: no statistically significant difference
[16]; 1 and 10μM, negatives re-screened at 5 and 20 μM, 3 hours
  phosphorylation of AMPK (p-AMPK Thr-172) by Western blot: stimulated phosphorylation of AMPK
[16]; Western blot
  concentration at which phosphorylation of AMPK peaks: 5 µM
[10]; [19]
  FAS protein levels in liver: reduced
[17]
  CAIII protein levels in liver: reduced
PH5CH8 liver cells; Homo sapiens
  IC50: 0.06 µM
PH5CH8 liver cells; Homo sapiens, S1 Table, SAR for N-Substituted Phenylbenzamides, read-out: IC50
  pIC50: 7.18
PH5CH8 liver cells; S1 Table, SAR for N-Substituted Phenylbenzamides
  Active/Inactive: Active
[12]
  change in respiration / oxygen consumption rate (OCR): significant changes
  concentration dependence of OCR change: dose dependent increase in OCR
